Test results: patent US20210301315A1, “METHODS FOR TREATING POLYMICROBIAL INFECTIONS” (priority 2017, published 2021)
“Also recorded” adds a separate entry of the source.

Legend:
E. coli and P. mirabilis = assay: P-AST species-pair interaction on antibiotic resistance (logistic regression, HSAP/UP); type: cell-based, Escherichia coli; Proteus mirabilis; conditions: E. coli and P. mirabilis together v. expected from each species alone (HSAP/UP)
Protocol: (§1) The Pooled Antibiotic Sensitivity Test (P-AST) is permitting the organisms identified to grow in the presence of antibiotics and measuring the minimum concentration of antibiotic to inhibit growth. Antibiotic susceptibility testing is performed when at least a single organism within a pool of organisms reaches a certain threshold, (e.g., at least 3,000 cells/ml, at least 5,000 cells/ml, at least 10,000 cells/ml, etc.) and can grow in the presence of the antibiotic in the assay within the time of testing. (Note: 10,000 cells/ml is equivalent to 10,000 CFU/ml.) The present invention is not limited to a 10,000 cells/mL threshold. These pools of organism(s) are inoculated into growth medium then placed onto an antibiotic laden “spec plate” that is then incubated and analyzed for growth. The breakpoints are derived from the CLSI breakpoints.
(§2) P-AST was performed by aliquoting 1 mL of patient urine specimen into a 1.7 mL microcentrifuge tube. After centrifugation, the supernatant was aspirated and discarded, leaving approximately 100 or 50 μL (minimum volume left above pellet created from centrifugation) of patient sample in the microcentrifuge tube. One mL of Mueller Hinton Growth Media was then aliquoted into the patient sample in the microcentrifuge tube and the tubes were incubated at 35° C. in a non-CO2 incubator for 6 hours. Non-inoculated liquid MH-media is incubated as the negative control to confirm the media used is not contaminated. Those samples that reached a minimum threshold of 10,000 cells/mL were then diluted by aliquoting 0.5 mL of sample into a 50 mL conical tube containing Mueller Hinton Growth Media (in this example, the dilution was 1:60, e.g., 500 μL was added to 29.5 mL). 96-well plates pre-loaded with antibiotics were then inoculated with diluted samples and incubated along with control plates for 12-16 hours at 35° C. in a single layer. Optical density of samples was then read on a DensiCHEK plate reader. The DensiCHEK instrument is used to measure the concentration of turbid samples considered positive because PCR-ID result was >=10,000 cells/mL. The turbid samples were diluted/normalized to the same concentration and then added to a volume of liquid, e.g., 29.5 mL of liquid MH-media. A spectrophotometer (plate reader) is used to measure optical density of the samples in wells of antibiotics and inoculum in order to determine if there is growth in a well. The present invention is not limited to a concentration of 10,000 cells/mL.
(§3) Interactions between pairs of bacterial species were investigated using a logistic regression model to predict resistance in the presence of specific bacterial species. Bacterial species that tested positive in at least 30 samples were considered in the regression model: these 16 species were A. schaalii, A. urinae, A. omnicolens, CoNS, C. riegelii, E. faecalis, E. coli, K. oxytoca, K. pneumoniae, M. morganii, P. mirabilis, P. aeruginosa, S. aureus, S. agalactiae, U. urealyticum, VGS. Backward stepwise model selection was performed on the model with all main effects and all pairwise interactions using an enter significance level of α=0.10 and an exit significance level of α=0.05 to obtain the best fitting model. This model was used to predict resistance rates when a specific organism was present or when a specific pair of organisms were present.
(§4) Using the logistic regression model described above, the resistance rate for a pair of species was compared to the resistance rates for each species alone. […]

[1] = test system: Coagulase-negative Staphylococcus (CoNS) and K. pneumoniae; assay: as above; type: cell-based, Coagulase negative staphylococci; Klebsiella pneumoniae; conditions: CoNS and K. pneumoniae together v. expected from each species alone (HSAP/UP)
Protocol: as §1, §2
Interactions between pairs of bacterial species were investigated using a logistic regression model to predict resistance in the presence of specific bacterial species. […]

E. coli and K. oxytoca = assay: as above; type: cell-based, Escherichia coli; Klebsiella oxytoca; conditions: E. coli and K. oxytoca together v. expected from each species alone (HSAP/UP)
Protocol: as §1
(§5) P-AST was performed by aliquoting 1 mL of patient urine specimen into a 1.7 mL microcentrifuge tube. After centrifugation, the supernatant was aspirated and discarded, leaving approximately 100 or 50 μL (minimum volume left above pellet created from centrifugation) of patient sample in the microcentrifuge tube. […] Optical density of samples was then read on a DensiCHEK plate reader. […] A spectrophotometer (plate reader) is used to measure optical density of the samples in wells of antibiotics and inoculum in order to determine if there is growth in a well. […]

[2] = test system: E. coli and S. agalactiae; assay: as above; type: cell-based, Escherichia coli; Streptococcus agalactiae; conditions: E. coli and S. agalactiae together v. expected from each species alone (HSAP/UP)
Protocol: as §1, §2, §3, §4

[3] = test system: Coagulase-negative Staphylococcus (CoNS) and E. coli; assay: as above; type: cell-based, Coagulase negative staphylococci; Escherichia coli; conditions: CoNS and E. coli together v. expected from each species alone (HSAP/UP)
Protocol: as §1, §5

[4] = test system: E. faecalis and K. pneumoniae; assay: as above; type: cell-based, Enterococcus faecalis; Klebsiella pneumoniae; conditions: E. faecalis and K. pneumoniae together v. expected from each species alone (HSAP/UP)
Protocol: as §1, §5

E. faecalis and E. coli = assay: as above; type: cell-based, Enterococcus faecalis; Escherichia coli; conditions: E. faecalis and E. coli together v. expected from each species alone (HSAP/UP)
Protocol: as §1, §5

[5] = test system: E. faecalis and P. aeruginosa; assay: as above; type: cell-based, Enterococcus faecalis; Pseudomonas aeruginosa; conditions: E. faecalis and P. aeruginosa together v. expected from each species alone (HSAP/UP)
Protocol: as §1, §5

[6] = test system: E. faecalis and P. mirabilis; assay: as above; type: cell-based, Enterococcus faecalis; Proteus mirabilis; conditions: E. faecalis and P. mirabilis together v. expected from each species alone (HSAP/UP)
Protocol: as §1, §5

[7] = test system: E. faecalis and S. agalactiae; assay: as above; type: cell-based, Enterococcus faecalis; Streptococcus agalactiae; conditions: E. faecalis and S. agalactiae together v. expected from each species alone (HSAP/UP)
Protocol: as §1, §5

[8] = test system: bacteria detected in patient urine specimens; assay: Pooled Antibiotic Susceptibility Testing (P-AST) of urine specimens, polymicrobial v. monomicrobial (logistic regression); type: cell-based; conditions: polymicrobial urine specimens
Source text: The present invention describes Pooled Antibiotic Susceptibility Testing (P-AST), which involves simultaneously growing all detected bacteria together in the presence of antibiotics and then measuring susceptibility. […] Urine specimens were obtained from patients presenting with UTI-like symptoms to 37 urology clinics. The odds of resistance were estimated for 18 antibiotics relative to increasing numbers of bacterial species in a specimen.
The following study combines data from two studies of antibiotic resistance patterns in elderly patients presenting with symptoms consistent with a UTI. […] All subjects met the following inclusion and exclusion criteria. Inclusion criteria included: symptoms of acute cystitis, complicated UTI, persistent UTI, recurrent UTI, prostatitis, pyelonephritis, interstitial cystitis (at any age), symptoms of other conditions at years of age, specimen volumes sufficient to permit urine culture and Multiplex Polymerase Chain Reaction (M-PCR) combined with Pooled Antibiotic Sensitivity Testing (P-AST), patient informed consented, documented times at which the specimens were collected and stabilized with boric acid in grey-top tubes. Exclusion criteria included prior participation in this study, antibiotics taken for any reason other than UTI at the time of enrollment, chronic (≥10 days) indwelling catheters, self-catheterization, and urinary diversion.
(§6) The Pooled Antibiotic Sensitivity Test (P-AST) is permitting the organisms identified to grow in the presence of antibiotics and measuring the minimum concentration of antibiotic to inhibit growth. Antibiotic susceptibility testing is performed when at least a single organism within a pool of organisms reaches a certain threshold, (e.g., at least 3,000 cells/ml, at least 5,000 cells/ml, at least 10,000 cells/ml, etc.) and can grow in the presence of the antibiotic in the assay within the time of testing. […] These pools of organism(s) are inoculated into growth medium then placed onto an antibiotic laden “spec plate” that is then incubated and analyzed for growth. The breakpoints are derived from the CLSI breakpoints.

[9] = test system: Coagulase-negative Staphylococcus (CoNS) and E. faecalis; assay: P-AST species-pair interaction on antibiotic resistance (logistic regression, HSAP/UP); type: cell-based, Coagulase negative staphylococci; Enterococcus faecalis; conditions: CoNS and E. faecalis together v. expected from each species alone (HSAP/UP)
Protocol: as §1, §5

[10] = test system: Coagulase-negative Staphylococcus (CoNS) and S. agalactiae; conditions: CoNS and S. agalactiae together v. expected from each species alone (HSAP/UP)
Protocol: as §6
P-AST was performed by aliquoting 1 mL of patient urine specimen into a 1.7 mL microcentrifuge tube. After centrifugation, the supernatant was aspirated and discarded, leaving approximately 100 or 50 μL (minimum volume left above pellet created from centrifugation) of patient sample in the microcentrifuge tube. One mL of Mueller Hinton Growth Media was then aliquoted into the patient sample in the microcentrifuge tube and the tubes were incubated at 35° C. in a non-CO2 incubator for 6 hours. […] Those samples that reached a minimum threshold of 10,000 cells/mL were then diluted by aliquoting 0.5 mL of sample into a 50 mL conical tube containing Mueller Hinton Growth Media (in this example, the dilution was 1:60, e.g., 500 μL was added to 29.5 mL). 96-well plates pre-loaded with antibiotics were then inoculated with diluted samples and incubated along with control plates for 12-16 hours at 35° C. in a single layer. Optical density of samples was then read on a DensiCHEK plate reader. The DensiCHEK instrument is used to measure the concentration of turbid samples considered positive because PCR-ID result was >=10,000 cells/mL. The turbid samples were diluted/normalized to the same concentration and then added to a volume of liquid, e.g., 29.5 mL of liquid MH-media. A spectrophotometer (plate reader) is used to measure optical density of the samples in wells of antibiotics and inoculum in order to determine if there is growth in a well.
Interactions between pairs of bacterial species were investigated using a logistic regression model to predict resistance in the presence of specific bacterial species. Bacterial species that tested positive in at least 30 samples were considered in the regression model: these 16 species were A. schaalii, A. urinae, A. omnicolens, CoNS, C. riegelii, E. faecalis, E. coli, K. oxytoca, K. pneumoniae, M. morganii, P. mirabilis, P. aeruginosa, S. aureus, S. agalactiae, U. urealyticum, VGS. […]

Compound: CO[C@@]1(NC(=O)Cc2cccs2)C(=O)N2C(C(=O)O)=C(COC(N)=O)CS[C@@H]21 [Cefoxitin, cefoxitin]
- change in antibiotic resistance of the pair of organisms (E. coli and P. mirabilis): decrease in resistance; also recorded: decreased odds of resistance

Compound: O=C(O)c1cn(C2CC2)c2cc(N3CCNCC3)c(F)cc2c1=O [Ciprofloxacin, ciprofloxacin]
- change in antibiotic resistance of the pair of organisms [1]: decrease in resistance; also recorded: decreased odds of resistance
- change in antibiotic resistance of the pair of organisms (E. coli and K. oxytoca): decrease in resistance; also recorded: decreased odds of resistance
- change in antibiotic resistance of the pair of organisms [2]: decrease in resistance; also recorded: decreased odds of resistance

Compound: CO/N=C(\C(=O)N[C@@H]1C(=O)N2C(C(=O)O)=C(CSc3nc(=O)c(=O)[nH]n3C)CS[C@H]12)c1csc(N)n1 [Ceftriaxone, ceftriaxone]
- change in antibiotic resistance of the pair of organisms (E. coli and P. mirabilis): decrease in resistance; also recorded: decreased odds of resistance
- change in antibiotic resistance of the pair of organisms [1]: decrease in resistance; also recorded: decreased odds of resistance
- change in antibiotic resistance of the pair of organisms [3]: decrease in resistance; also recorded: decreased probability in resistance; also recorded: decreased odds of resistance
- change in antibiotic resistance of the pair of organisms [2]: decrease in resistance; also recorded: decreased odds of resistance

Compound: C[C@@H](O)[C@H]1C(=O)N2C(C(=O)O)=C(S[C@@H]3CN[C@H](C(=O)N(C)C)C3)[C@H](C)[C@H]12 [Meropenem, meropenem]
- change in antibiotic resistance of the pair of organisms [4]: decrease in resistance; also recorded: decreased odds of resistance
- change in antibiotic resistance of the pair of organisms (E. faecalis and E. coli): decrease in resistance; also recorded: decreased odds of resistance
- change in antibiotic resistance of the pair of organisms [5]: decrease in resistance; also recorded: decreased odds of resistance
- change in antibiotic resistance of the pair of organisms [6]: decrease in resistance; also recorded: decreased odds of resistance

Compound: CN[C@H](CC(C)C)C(=O)N[C@H]1C(=O)N[C@@H](CC(N)=O)C(=O)N[C@H]2C(=O)N[C@H]3C(=O)N[C@H](C(=O)N[C@H](C(=O)O)c4cc(O)cc(O)c4-c4cc3ccc4O)[C@H](O)c3ccc(c(Cl)c3)Oc3cc2cc(c3O[C@@H]2O[C@H](CO)[C@@H](O)[C@H](O)[C@H]2O[C@H]2C[C@](C)(N)[C@H](O)[C@H](C)O2)Oc2ccc(cc2Cl)[C@H]1O [Vancomycin, vancomycin]
- change in antibiotic resistance of the pair of organisms [7]: decrease in resistance; also recorded: decreased odds of resistance
- odds of resistance for each additional species identified (in words) [8]: increased
- change in antibiotic resistance of the pair of organisms [9]: decrease in resistance; also recorded: decreased odds of resistance
- change in antibiotic resistance of the pair of organisms [10]: decrease in resistance; also recorded: decreased odds of resistance

Compound: CC1(C)S[C@@H]2[C@H](NC(=O)[C@H](N)c3ccccc3)C(=O)N2[C@H]1C(=O)O [Ampicillin, ampicillin]
- change in antibiotic resistance of the pair of organisms [7]: decrease in resistance; also recorded: decreased odds of resistance
- odds of resistance for each additional species identified (in words) [8]: increased
- change in antibiotic resistance of the pair of organisms [1]: reduced resistance
- change in antibiotic resistance of the pair of organisms [2]: decrease in resistance; also recorded: decreased odds of resistance
